Consider three molecules from patent publication US20120142770A1, “PHARMACEUTICAL COMPOSITIONS OF HDAC INHIBITORS AND CHELATABLE METAL COMPOUNDS, AND METAL-HDAC INHIBITOR CHELATE COMPLEXES” (Merck Sharp & Dohme Corp, priority 2006, published 2012).

In brackets after ≈: the same amount, converted by molar mass. Where two headings read alike, the source gives them in different places.

For data set [1] the following is noted: in vivo; cited from earlier work.
Data set [2] can be described thus: Solubility of raw material (Table 1). The data set is classed as physicochemical. The source says:
Table 1 summarizes the physical properties of the raw materials in the capsule.

Another data set relates to patients with cancer. To be noted: cited from earlier work.
In a further data set the test system is all animal species. To be noted: cited from earlier work.
A short description of the next data set: in vivo. The following applies: female, CD1 nu/nu, mouse, ip.
A further data set deals with rats. The following applies: rat, in vivo; cited from earlier work.
In the next data set the test system is dogs. To be noted: dog, in vivo; cited from earlier work.

Method for in vivo: To test whether the maximum tolerated dose (MTD) of vorinostat in mice can be increased with zinc supplementation, Mice (CD1 nu/nu female, 6-8 weeks old, Charles River Laboratories) are administered vehicle, 150 mg/kg (MTD) or 300 mg/kg vorinostat in vehicle (Table 11). Mice are given 0.5, 1, or 5 molar equivalents (relative to vorinostat) of zinc chloride. This corresponds to ZnCl2 doses of 38.5, 77, and 385 mg/kg for the 150 mg/kg vorinostat group.
Body weight and survival are monitored as indications of toxicity. Doses resulting in a group average body weight loss of more than 20% average will be considered non-tolerated. Likewise, doses resulting in the treatment-related death of more than 2 mice per group will be considered non-tolerated.

Turning to `CC(=O)N(O)CCCCCNC(=O)CCC(=O)N(O)CCCCCNC(=O)CCC(=O)N(O)CCCCCN` [Desferrioxamine], the side effects result in data set [1] is “fatigue, bone marrow atrophy, thymic atrophy and neutropenia”.
Take `CC(=O)NO` [Lithostat, acetohydroxamic acid]: the side effects entry in data set [1] was “nausea, vomiting, anorexia, fatigue, malaise, reticulocytosis, anemia, thrombocytopenia, leukopenia and headache”.
Take `O=C(CCCCCCC(=O)Nc1ccccc1)NO` [Suberoylanilide hydroxamic acid (SAHA), N-hydroxy-N′-phenyloctanediamide]: the solubility – broadly, the concentration that dissolves in the medium under given conditions – in data set [2] (2% CIP100 aqueous solution, aqueous with cosolvent or surfactant or cyclodextrin, 2% CIP100 aqueous soln., read-out: Solubility in 2% CIP100 aqueous soln.) was 11.3 mg/mL (≈ 42.8 mM); in data set [2] (2% SD-20 aqueous solution, aqueous with cosolvent or surfactant or cyclodextrin, 2% SD-20 aqueous soln., read-out: Solubility in 2% SD-20 aqueous soln.), 0.085 mg/mL (≈ 0.322 mM); in data set [2] (in water, read-out: Solubility in Water), less than 0.1 mg/mL; in data set [2] (organic solvent or mixture, in methanol, read-out: Solubility in Methanol), 42 mg/mL (≈ 159 mM). For the same molecule, the “Clinical adverse experiences or side effects” value in the data set on patients with cancer is listed as “diarrhea, fatigue, nausea, thrombocytopenia, anorexia, dysgeusia, weight decrease, muscle spasms, alopecia, anemia, blood creatinine increase, vomiting, chills”. Moreover, the Preclinical toxicity entry with all animal species was “weight loss or inappetence, immune suppression (leucopenia, lymphopenia, thymic atrophy)”; in the data set on rats, “thrombocytopenia”; in the data set on dogs it was “gastrointestinal toxicity (mucosal atrophy, acute inflammation, necrosis, multiple lesions), dehydration, electrolyte loss, testicular atrophy”. This molecule also showed an MTD in “in vivo” of 150 mg/kg.
